Data from paper PMC12715756 (ACS Chemical Neuroscience, 2025).

Columns and labels:
5-HT2C = target: T1, 5-HT2C (Homo sapiens, UniProt P28335); experiment: cell-based; settings: for EC50: Gq dissociation BRET; for Emax: HEK-293T, read-out: Emax ± SEM, %5-HT response 5-HT2C
T1 construct: expressed in transfected cells; host or cells: HEK293T (ATCC; RRID:CVCL_0063), transient transfection
T1 sequence (P28335 33-458): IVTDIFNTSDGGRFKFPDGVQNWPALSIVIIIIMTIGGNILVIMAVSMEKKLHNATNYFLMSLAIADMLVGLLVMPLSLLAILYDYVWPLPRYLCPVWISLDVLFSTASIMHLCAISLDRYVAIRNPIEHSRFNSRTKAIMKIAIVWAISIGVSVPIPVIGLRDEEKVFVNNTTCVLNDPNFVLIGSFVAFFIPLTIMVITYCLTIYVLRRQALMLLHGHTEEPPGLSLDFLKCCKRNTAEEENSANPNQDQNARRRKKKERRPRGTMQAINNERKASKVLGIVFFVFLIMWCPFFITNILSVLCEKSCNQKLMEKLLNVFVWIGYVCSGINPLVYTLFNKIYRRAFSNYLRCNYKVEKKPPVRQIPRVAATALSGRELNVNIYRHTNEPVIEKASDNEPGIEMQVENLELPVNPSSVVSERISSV

male Swiss CD-1 mice [1] = experiment: Horizontal locomotor activity (HLA); assay type: in vivo; settings: for effect on horizontal locomotor activity: 2.5, 10, 25 mg/kg i.p., 120 min, ceiling effect at 25 mg/kg
Protocol: (§1) Male Swiss CD-1 mice (Janvier, Le Genest, France), weighing 30–35 g and aged 6–8 weeks, were used for HLA, thigmotaxis, CPP, and core body temperature experiments. Animals were housed under temperature-controlled conditions (22 ± 1 °C) with a 12 h light/dark cycle and had free access to food and water (standard laboratory diet, Panlab SL, Barcelona, Spain). Doses for HLA, thigmotaxis, CPP, and core body temperature experiments were calculated based on the free base form of each compound. For HTR experiments, male C57BL/6J mice (6–8 weeks old) were obtained from Jackson Laboratories (Bar Harbor, ME, USA) and housed up to four per cage with a reversed light-cycle (lights on at 1900 h, off at 0700 h). Food and water were provided ad libitum, except during behavioral testing. Testing was conducted between 1000 and 1830 h. Doses for HTR experiments were calculated based on the respective salt forms of the compounds.
A habituation phase was performed to reduce the stress and novelty associated with handling and injection. During this phase, which lasted for two consecutive days, mice received an intraperitoneal (ip) saline injection and were immediately placed into a black Plexiglas Open Field (OF) arena (25 × 25 × 40 cm) under low-light conditions and white noise for 30 min. On the test day, their horizontal locomotor activity (HLA) was measured. […] HLA was video monitored for 2 h, and a specific tracking software (Smart 3.0 Panlab, Barcelona, Spain) was used to measure their total traveled distance (in cm). Center Versus Periphery: The thigmotactic effects of the test compounds, widely considered as anxiety-like effects, were assessed through an OF test. Each mouse was individually placed in the center of an open-field arena (25 cm length × 25 cm width × 40 cm height). The time spent, in seconds, in the center (8 × 8 cm) or the periphery of the arena was monitored for 2 h (Smart 3.0 Panlab, Barcelona, Spain).

male Swiss CD-1 mice [2] = experiment: Conditioned place preference (CPP); assay type: in vivo; settings: for rewarding effects (CPP preference score): 10 mg/kg i.p., compared to saline; for CPP preference score: lowest dose tested
Protocol: as §1
For this experiment, an apparatus with two distinct compartments, differing in tactile and visual cues, connected by a central corridor, was used. The conditioned place preference (CPP) procedure consisted of three phases: preconditioning, conditioning, and postconditioning. In the preconditioning phase (day 0), mice were placed in the middle of the corridor and allowed to freely explore both compartments for 15 min. The time spent in each compartment was recorded and monitored using specific tracking software (Smart 3.0 Panlab, Barcelona, Spain). In the conditioning phase (day 1–day 8), access to the corridor was closed. […] On alternate days, , mice received a saline i.p. injection and were placed in the other compartment for 30 min. Mice in the control group received a saline injection in every session. The compartments and sessions in which the drug was administered were randomized. In the postconditioning phase (test day), the same conditions as the preconditioning phase were reinstated. A preference score was determined by calculating the difference in time spent in the drug-paired compartment between the post- and preconditioning phases.

DAT [3] = target: T2, DAT (Homo sapiens, UniProt Q01959); settings: uptake inhibition; DAT/SERT ratio = 1/DAT / 1/SERT
T2 sequence (Q01959 whole entry): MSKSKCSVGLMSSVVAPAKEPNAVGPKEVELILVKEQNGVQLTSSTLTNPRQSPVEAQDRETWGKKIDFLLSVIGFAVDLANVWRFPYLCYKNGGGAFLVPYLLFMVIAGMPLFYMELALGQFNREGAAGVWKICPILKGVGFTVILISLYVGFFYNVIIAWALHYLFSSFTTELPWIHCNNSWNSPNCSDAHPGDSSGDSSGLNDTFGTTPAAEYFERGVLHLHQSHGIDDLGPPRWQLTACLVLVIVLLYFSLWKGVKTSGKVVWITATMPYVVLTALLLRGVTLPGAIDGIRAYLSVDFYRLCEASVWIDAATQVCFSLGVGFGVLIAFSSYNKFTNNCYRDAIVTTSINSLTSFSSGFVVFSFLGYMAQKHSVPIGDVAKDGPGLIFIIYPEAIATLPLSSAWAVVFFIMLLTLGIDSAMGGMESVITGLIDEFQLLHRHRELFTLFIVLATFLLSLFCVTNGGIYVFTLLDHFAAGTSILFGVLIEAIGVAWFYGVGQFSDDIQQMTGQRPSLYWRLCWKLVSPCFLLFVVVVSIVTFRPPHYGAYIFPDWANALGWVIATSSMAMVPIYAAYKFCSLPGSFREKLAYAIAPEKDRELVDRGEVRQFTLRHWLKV

DAT [4] = target: T2, DAT; settings: for DAT/SERT ratio (EC50): efflux assays
DAT [5] = target: T2, DAT; experiment: cell-based; settings: read-out: Emax [95%-CI], DAT mediated [3H]MPP+ release
NET [6] = target: T3, NET (Homo sapiens, UniProt P23975); experiment: Uptake inhibition assay, [3H]MPP+ uptake in HEK293 cells; assay type: cell-based; parameters: expressed in transfected cells; settings: HEK293 cells, 0.02 μM [3H]MPP+; mean ± SD; read-out: IC50 ± SD, [3H]MPP+ uptake NET
T3 sequence (P23975 whole entry): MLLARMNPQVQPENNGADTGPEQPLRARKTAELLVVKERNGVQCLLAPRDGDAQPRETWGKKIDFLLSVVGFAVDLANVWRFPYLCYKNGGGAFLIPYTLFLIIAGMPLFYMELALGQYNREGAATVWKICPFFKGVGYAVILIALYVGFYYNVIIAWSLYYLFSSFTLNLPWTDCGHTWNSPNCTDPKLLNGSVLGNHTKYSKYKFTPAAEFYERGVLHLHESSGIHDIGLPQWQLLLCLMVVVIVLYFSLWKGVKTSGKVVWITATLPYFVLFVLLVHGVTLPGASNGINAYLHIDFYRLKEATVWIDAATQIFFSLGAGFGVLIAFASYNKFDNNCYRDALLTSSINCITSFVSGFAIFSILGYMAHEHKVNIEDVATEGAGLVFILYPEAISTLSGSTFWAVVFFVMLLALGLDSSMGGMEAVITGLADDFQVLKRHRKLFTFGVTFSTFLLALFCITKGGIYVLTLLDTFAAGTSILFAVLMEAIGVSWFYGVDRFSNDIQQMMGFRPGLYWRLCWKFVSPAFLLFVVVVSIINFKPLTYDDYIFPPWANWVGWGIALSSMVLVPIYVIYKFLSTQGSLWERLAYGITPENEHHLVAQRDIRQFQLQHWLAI

OCT2 = target: T4, OCT2 (Homo sapiens, UniProt O15244); experiment: as above
T4 sequence (O15244 1-555): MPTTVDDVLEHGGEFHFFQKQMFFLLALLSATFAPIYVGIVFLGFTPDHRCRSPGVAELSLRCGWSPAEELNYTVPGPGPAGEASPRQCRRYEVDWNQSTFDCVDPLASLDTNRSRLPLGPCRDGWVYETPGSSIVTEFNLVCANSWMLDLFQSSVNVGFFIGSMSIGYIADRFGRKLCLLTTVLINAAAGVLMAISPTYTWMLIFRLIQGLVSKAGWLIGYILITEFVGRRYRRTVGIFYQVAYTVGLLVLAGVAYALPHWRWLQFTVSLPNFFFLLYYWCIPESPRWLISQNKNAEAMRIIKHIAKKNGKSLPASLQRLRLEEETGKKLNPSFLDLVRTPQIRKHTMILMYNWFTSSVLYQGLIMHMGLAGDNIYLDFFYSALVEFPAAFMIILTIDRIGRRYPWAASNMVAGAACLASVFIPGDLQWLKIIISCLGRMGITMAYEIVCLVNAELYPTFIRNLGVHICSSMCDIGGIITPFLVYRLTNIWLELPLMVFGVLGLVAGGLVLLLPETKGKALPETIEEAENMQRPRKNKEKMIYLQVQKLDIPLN

SERT = SERT (Homo sapiens, UniProt P31645); experiment: Release (superfusion) assay, SERT mediated [3H]5-HT efflux; settings: for Emax: read-out: Emax [95%-CI], SERT mediated [3H]5-HT efflux
Chain of SERT (P31645 whole entry, the tested form may be a part): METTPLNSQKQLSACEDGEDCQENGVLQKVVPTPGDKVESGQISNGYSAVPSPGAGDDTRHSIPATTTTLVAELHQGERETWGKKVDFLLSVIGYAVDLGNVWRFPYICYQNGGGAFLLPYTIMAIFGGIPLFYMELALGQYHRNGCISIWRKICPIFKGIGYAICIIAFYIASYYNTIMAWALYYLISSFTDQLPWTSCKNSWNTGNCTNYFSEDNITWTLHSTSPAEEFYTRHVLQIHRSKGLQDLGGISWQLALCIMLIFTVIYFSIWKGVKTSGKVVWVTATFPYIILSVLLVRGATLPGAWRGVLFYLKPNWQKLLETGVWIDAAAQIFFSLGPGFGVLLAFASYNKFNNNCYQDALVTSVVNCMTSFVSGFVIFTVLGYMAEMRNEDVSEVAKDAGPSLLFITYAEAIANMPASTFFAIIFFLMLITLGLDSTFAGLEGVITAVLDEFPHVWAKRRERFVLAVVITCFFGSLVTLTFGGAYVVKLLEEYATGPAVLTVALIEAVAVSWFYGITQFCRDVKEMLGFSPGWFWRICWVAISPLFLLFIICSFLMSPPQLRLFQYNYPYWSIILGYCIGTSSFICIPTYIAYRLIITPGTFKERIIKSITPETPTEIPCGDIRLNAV

NET [7] = target: T3, NET; experiment: Release (superfusion) assay, NET mediated [3H]MPP+ release; settings: for Emax: read-out: Emax [95%-CI], NET mediated [3H]MPP+ release

SMILES	EC50 (5-HT2C) [nM]	Emax (5-HT2C) [%]	efficacy at inducing locomotion, in comparison to SDMA and MDMA (male Swiss CD-1 mice [1]; 10 mg/kg i.p.)	effect on horizontal locomotor activity (male Swiss CD-1 mice [1])	rewarding effects (CPP preference score) (male Swiss CD-1 mice [2])	CPP preference score (male Swiss CD-1 mice [2])	DAT/SERT ratio (IC50) (DAT [3])	type of releaser at DAT (DAT [4])	DAT/SERT ratio (EC50) (DAT [4])	Emax (DAT [5]) [%]	IC50 (NET [6]) [nM]	IC50 (OCT2) [nM]	EC50 (SERT) [nM]	type of releaser at SERT (SERT)	Emax (SERT) [%]	EC50 (NET [7]) [nM]	type of releaser at NET (NET [7])	Emax (NET [7]) [%]
CC(N)Cc1ccc2c(c1)SCO2 (centres unmarked) [SDA, 1-(1,3-benzoxathiol-5-yl)propan-2-amine]	48.1	92.9 ± 4.9	significantly higher efficacy	induced hyperlocomotion	neither SDA nor SDMA induced significant rewarding effects	significant preference score	2.42	partial releasers	0.66	55.4	850 ± 240	5700 ± 600	270	partial releasers	70.5	150	full releasers	99.6
CNC(C)Cc1ccc2c(c1)SCO2 (centres unmarked) [SDMA, 1-(1,3-benzoxathiol-5-yl)-N-methylpropan-2-amine]	656	79 ± 5.3		induced hyperlocomotion	neither SDA nor SDMA induced significant rewarding effects	positive preference score at the same dose, it did not reach significance	2.15	partial releasers	0.37	35.4	770 ± 390	4130 ± 600	180	partial releasers	71.5	360	full releasers	104
